From patent publication US10874103B2, “Antibacterial composition comprising an acetal or a long-chain alkyl hexitane ether” (TEREOS STARCH & SWEETENERS BELGIUM, priority 2014, dated 2020)

Columns and labels:
[1] = tested on: Enterococci: E. faecalis strains; assay: MIC microdilution on wider panel (Example 8), E. faecalis strains; type: cell-based
Procedure: The cultures studied, freshly isolated (after incubation on a blood agar at 37° C. for 18 h), are taken up in sterile water (10 mL) until a 0.5 McFarland (Mc) suspension i.e. at 1 to 2×10^8 CFU (bacteria)/cm^3 is obtained. The bacterial suspension was then diluted to obtain a final concentration of 1×10^6 CFU/cm^3. Each well contains an identical quantity of Mueller-Hinton medium (a rich medium for bacterial culture) and bacteria with final 0.5×10^6 CFU/cm^3. The test compounds of interest are solubilized in ethanol or DMSO at 25 mg/mL before being diluted to different concentrations two by two. On the multiwell plate, a first series has been planned comprising the culture medium without the test compound of interest. It corresponds to the growth control (control well). These controls serve as reference for comparing bacterial growth with that of the subsequent wells comprising different concentrations of the test compound of interest. The second series of wells comprises the mother solution for the test compound of interest for a concentration in the wells of 256 mg (7 mM). Each series of wells was diluted two by two until the last series for a final concentration of 0.25 mg/L (0.0007 mM). Each concentration is duplicated in the same plate. The plate is incubated for 18 h at 37° C. […] If there is antibacterial activity, the bacterial growth is inhibited, which means that no turbidity or bacterial residue is present. The minimum inhibitory concentrations (MIC) are tested on Gram-positive bacterial strains according to the recommendations of the “Clinical Laboratory Standards Institute” (Clinical-Laboratory-Standards-Institute, 6th ed. Approved standard M100-S17. CLSI, Wayne, Pa., 2007). The clinical strains have been isolated in the Hospice de Lyon. […]

[2] = tested on: L. monocytogenes (CIP 103575), E. faecalis (ATCC® 29212™) and S. aureus (ATCC® 292213™); assay: MIC microdilution, statements for all three Gram-positive strains together; type: cell-based; details: listed as Sorbitan dodecyl ether
Procedure: The bacteriostatic properties of the derivatives are evaluated by measuring their minimum inhibitory concentration (MIC) on the bacteria tested. Such a measurement is made using the 96-well microplate microdilution method according to the conditions defined below.
The minimum inhibitory concentrations (MIC) are tested on Gram-positive bacterial strains according to the recommendations of the “Clinical Laboratory Standards Institute” (Clinical-Laboratory-Standards-Institute, 6th ed. Approved standard M100-S17. CLSI, Wayne, Pa., 2007).
The Gram-positive bacteria studied are as follows: L. monocytogenes (CIP 103575), E. faecalis (ATCC® 29212™) and S. aureus (ATCC® 292213™).
The cultures studied, freshly isolated (after incubation on a blood agar at 37° C. for 18 h), are taken up in sterile water (10 mL) until a 0.5 McFarland (Mc) suspension i.e. 1 to 2×10^8 CFU (bacteria)/cm^3 is obtained. The bacterial suspension was then diluted to obtain a final concentration of 5×10^5 CFU/cm^3.
Each well contains an identical quantity of Mueller-Hinton medium (a rich medium for bacterial culture) and bacteria with final 5×10^5 CFU/cm^3.
The test compounds of interest are solubilized in 2.5% m of ethanol before being diluted to different concentrations two by two.
On the multiwell plate, a first series has been planned comprising the culture medium without the test compound of interest. […]

Q: Which results are given for Dodecyl-1,4-d-sorbitan [Example 2e]?
A: Minimum inhibitory concentration (MIC) ATCC 29212 ([1]; E. faecalis ATCC 29212): 8 µg/mL; Minimum inhibitory concentration (MIC) 1801 ([1]; clinical E. faecalis from urines, strain 015205261801): 8 µg/mL; Minimum inhibitory concentration (MIC) 9901 ([1]; clinical E. faecalis from urines, strain 015206179901): 16 µg/mL; MIC / inhibitory concentration on the bacterial strains studied [2]: 120 µM
